# Values of other authors, collected in patent US20210319872A1, “DRUG AND DEVICE COMBINATION PRODUCTS WITH IMPROVED SAFETY AND EFFICACY PROFILES” (priority 2016, published 2021).
# Like-named read-outs stand apart in the source and are kept apart here.
# [1] = Myelodysplastic syndrome, grade 3 or 4
smiles,measurement,setting,value
Nc1cccc2c1CN(C1CCC(=O)NC1=O)C2=O (centres unmarked) [Revlimid],"Cataract, Grade 3 or 4","Multiple myeloma, grade 3.4",1.4% (grade 3.4))
same,Multiple organ failure,[1],1.4%
same,Pneumonitis,[1],"syndrome, grade 3 or 4, 1.4%), Pulmonary embolism, Grade 3 or 4"
same,Pulmonary hypertension,[1],1.4%
same,Hepatotoxicity,in vivo,15%
same,Myocardial infarction,in vivo,< 5%
same,"Common side effect, Other",listed without frequency,Infectious disease
same,"Serious side effect, Dermatologic",listed without frequency,Stevens-Johnson syndrome
same,"Serious side effect, Hematologic",listed without frequency,Thrombosis
same,"Serious side effect, Hepatic",listed without frequency,Liver failure
same,"Serious side effect, Other",listed without frequency,"Other: Angioedema, Multiple organ failure (Myelodysplastic"
same,"Serious side effect, Renal",listed without frequency,"Renal: Interstitial nephritis, acute"
same,"Anemia, All grades",mantle cell lymphoma,31%
same,"Anemia, Grade 3 or 4",mantle cell lymphoma,11%
same,Arthralgia,mantle cell lymphoma,8%
same,Asthenia,mantle cell lymphoma,14%
same,Backache,mantle cell lymphoma,13%
same,Constipation,mantle cell lymphoma,16%
same,Cough,mantle cell lymphoma,28%
same,Diarrhea,mantle cell lymphoma,31%
same,Dyspnea,mantle cell lymphoma,"16.9%; mantle cell lymphoma, 18%), Epistaxis (Myelodysplastic"
same,Fatigue,mantle cell lymphoma,34%
same,Fever,mantle cell lymphoma,23%
same,Hypokalemia,mantle cell lymphoma,13%
same,Hypoxia,mantle cell lymphoma,"Respiratory: Hypoxia (Mantle cell lymphoma, 2%), Pleural"
same,"Neutropenia, All grades",mantle cell lymphoma,49%
same,"Neutropenia, Grade 3 or 4",mantle cell lymphoma,43%
same,Peripheral edema,mantle cell lymphoma,16%
same,Pleural effusion,mantle cell lymphoma,"effusion (Mantle cell lymphoma, 7%), Pneumonia (Multiple"
same,Pneumonia,mantle cell lymphoma,"mantle cell lymphoma, 14%), Pneumonitis (Myelodysplastic"
same,Pruritus,mantle cell lymphoma,17%
same,Rash,mantle cell lymphoma,"cell lymphoma, 22%)"
same,"Thrombocytopenia, All grades",mantle cell lymphoma,36%)
same,"Thrombocytopenia, Grade 3 or 4",mantle cell lymphoma,28%
same,Tumor flare,mantle cell lymphoma,10%
same,Upper respiratory infection,mantle cell lymphoma,13%
same,Arthralgia,multiple myeloma,"Musculoskeletal: Arthralgia (Multiple myeloma, 19%;"
same,Asthenia,multiple myeloma,"Neurologic: Asthenia (Multiple myeloma, 28.2%; myelodysplastic"
same,"Atrial fibrillation, Grade 3 or 4",multiple myeloma,3.7%
same,Blurred vision,multiple myeloma,"Ophthalmic: Blurred vision (Multiple myeloma, 17.3%)"
same,"Cataract, Grade 3 or 4",multiple myeloma,"Ophthalmic: Cataract, Grade 3 or 4 (Multiple myeloma, 9.6%;"
same,"Congestive heart failure, Grade 3 or 4",multiple myeloma,"failure, Grade 3 or 4 (multiple myeloma, 1.4%), Myocardial"
same,Constipation,multiple myeloma,"Gastrointestinal: Constipation (Multiple myeloma, 40.5%;"
same,Cough,multiple myeloma,"Respiratory: Cough (Multiple myeloma, 22.7%; myelodysplastic"
same,Cramp,multiple myeloma,33.4%
same,Insomnia,multiple myeloma,"Insomnia (Multiple myeloma, 27.6%; myelodysplastic syndrome,"
same,Peripheral edema,multiple myeloma,"Cardiovascular: Peripheral edema (multiple myeloma, 26.3%;"
same,Pruritus,multiple myeloma,"Dermatologic: Pruritus (Multiple myeloma, 7.6%; myelodysplastic"
same,Rash,multiple myeloma,≤ 26.1%
same,Tremor,multiple myeloma,21.2%
same,Upper respiratory infection,multiple myeloma,"15.5%), Upper respiratory infection (Multiple myeloma, 24.6%;"
same,"Anemia, All grades",myelodysplastic syndrome,"43.8%; myelodysplastic syndrome, 11.5%; mantle cell lymphoma,"
same,"Anemia, Grade 3 or 4",myelodysplastic syndrome,"18.2%; myelodysplastic syndrome, 6.1%; mantle cell lymphoma,"
same,Arthralgia,myelodysplastic syndrome,21.6%
same,Asthenia,myelodysplastic syndrome,14.9%
same,Backache,myelodysplastic syndrome,20.9%
same,Constipation,myelodysplastic syndrome,23.6%
same,Cough,myelodysplastic syndrome,19.6%
same,Cramp,myelodysplastic syndrome,18.2%
same,Diarrhea,myelodysplastic syndrome,48.6%
same,Epistaxis,myelodysplastic syndrome,14.9%
same,Fatigue,myelodysplastic syndrome,31.1%
same,Fever,myelodysplastic syndrome,20.9%
same,Hypokalemia,myelodysplastic syndrome,"17.1%; myelodysplastic syndrome, 10.8%; mantle cell lymphoma,"
same,Insomnia,myelodysplastic syndrome,10.1%
same,Nasopharyngitis,myelodysplastic syndrome,23%
same,"Neutropenia, All grades",myelodysplastic syndrome,58.8%
same,"Neutropenia, Grade 3 or 4",myelodysplastic syndrome,53.4%
same,Peripheral edema,myelodysplastic syndrome,20.3%
same,Pneumonia,myelodysplastic syndrome,11.5%
same,Pruritus,myelodysplastic syndrome,41.9%
same,Rash,myelodysplastic syndrome,35.8%
same,"Thrombocytopenia, All grades",myelodysplastic syndrome,"21.5%; myelodysplastic syndrome, 61.5%; mantle cell lymphoma,"
same,"Thrombocytopenia, Grade 3 or 4",myelodysplastic syndrome,"12.2%; myelodysplastic syndrome, 50%; mantle cell lymphoma,"
same,Upper respiratory infection,myelodysplastic syndrome,14.9%
CC(=O)O[C@]1(C(C)=O)CC[C@H]2[C@@H]3CCC4=CC(=O)CCC4=C3[C@@H](c3ccc(N(C)C)cc3)C[C@@]21C [Ella],Headache,in vivo,Neurologic: Headache (18% to 19%)
Cc1cc2c(s1)Nc1ccccc1N=C2N1CCN(C)CC1 [Olanzapine (Zyprexa)],Akathisia,in vivo,"Neurologic: Akathisia (5% to 27%), Asthenia (2% to 20%),"
same,Asthenia,in vivo,"Neurologic: Akathisia (5% to 27%), Asthenia (2% to 20%),"
same,Constipation,in vivo,"Gastrointestinal: Constipation (4% to 11%), Xerostomia (Adult, up"
same,Dizziness,in vivo,"Dizziness (Adult, 1.6% to 18%; adolescent, 7% to 8%),"
same,Hyperprolactinemia,in vivo,"adolescent, up to 14%), Hyperprolactinemia (30% to 61.1%),"
same,Increased appetite,in vivo,"Increased appetite (Adult, 3% to 24%; adolescent, 17% to 29%),"
same,Orthostatic hypotension,in vivo,"Cardiovascular: Orthostatic hypotension (More than 5%),"
same,Peripheral edema,in vivo,Peripheral edema (3% to 6%)
same,Personality disorder,in vivo,Psychiatric: Personality disorder (8%)
same,Serum triglycerides raised,in vivo,"Serum triglycerides raised (20.8% to 40%), Weight increased, 7%"
same,Somnolence,in vivo,"Somnolence (IM, 6%; oral, 20% to 52%), Tremor (1% to 23%)"
same,Tremor,in vivo,"Somnolence (IM, 6%; oral, 20% to 52%), Tremor (1% to 23%)"
same,Somnolence,"in vivo, po","Somnolence (IM, 6%; oral, 20% to 52%), Tremor (1% to 23%)"
CC(C)NCC(O)COc1ccc(CCOCC2CC2)cc1 (centres unmarked) [Betaxolol (Kerlone)],Arthralgia,in vivo,"Musculoskeletal: Arthralgia (3.1% to 5.2%), Chest pain (2.4% to"
same,Bradyarrhythmia,in vivo,Cardiovascular: Bradyarrhythmia (5.8% to 8.1%)
same,Burning sensation in eye,in vivo,"Ophthalmic: Burning sensation in eye (30%, ophthalmic)"
same,Fatigue,in vivo,Other: Fatigue (2.9% to 9.7%)
same,Indigestion,in vivo,"Gastrointestinal: Indigestion (3.9% to 4.7%), Nausea (1.6% to"
same,"Serious side effects, listed without incidence or only as rare",in vivo,"Cardiovascular: Atrioventricular block, Myocardial infarction"
CC(C)NCC(O)COc1ccc(COCCOC(C)C)cc1 (centres unmarked) [Bisoprolol (Zebeta)],Diarrhea,in vivo,Gastrointestinal: Diarrhea (2.6% to 3.5%)
same,Fatigue,in vivo,Other: Fatigue (6.6% to 8.2%)
same,Headache,in vivo,Neurologic: Headache (8.8% to 10.9%)
same,Rhinitis,in vivo,"Respiratory: Rhinitis (2.9% to 4%), Upper respiratory infection"
same,Upper respiratory infection,in vivo,(4.8% to 5%.)
O=C1Nc2ccc(Cl)cc2C(c2ccccc2Cl)=NC1O (centres unmarked) [Lorazepam (Ativan)],Acidosis,in vivo,Endocrine metabolic: Acidosis (less than 1%)
same,Asthenia,in vivo,"Neurologic: Asthenia (4.2%), Dizziness (6.9%), Sedated (15.9%),"
same,"Common side effects, listed without incidence",in vivo,Psychiatric: Depression
same,Dizziness,in vivo,"Neurologic: Asthenia (4.2%), Dizziness (6.9%), Sedated (15.9%),"
same,Sedated,in vivo,"Neurologic: Asthenia (4.2%), Dizziness (6.9%), Sedated (15.9%),"
same,"Serious side effects, listed without incidence or only as rare",in vivo,Psychiatric: Delirium
same,Unsteadiness present,in vivo,Unsteadiness present (3.4%)
CCOC(=O)[C@H](CCc1ccccc1)N[C@@H](C)C(=O)N1CCC[C@H]1C(=O)O [Enalapril (Vasotec)],Angioedema,in vivo,Other: Angioedema (0.1% to 1%)
same,Dizziness,in vivo,Neurologic: Dizziness (4.3% to 7.9%)
same,Fatigue,in vivo,Other: Fatigue (3%)
same,Hyperkalemia,in vivo,Endocrine metabolic: Hyperkalemia (1% to 3.8%)
same,Hypotension,in vivo,Cardiovascular: Hypotension (0.9% to 6.7%)
same,Serum creatinine raised,in vivo,raised (0.2% (hypertension) to 20% (hypertension with renal artery
